Experiment [1] relates to MDA-MB-231. Kind of experiment: Antiproliferative activity against human MDA-MB-231 cells assessed as reduction in cell growth measured after 72 hrs by CCK8 assay. Type of experiment: functional, cell-based. To be noted: MDA-MB-231, 72 h. (Tetrazolium assays rely on reduction of a dye to a coloured formazan, in cell work by metabolically active cells.)
A further experiment has as its system HCT-116. The experiment can be described thus: Antiproliferative activity against human HCT116 cells assessed as reduction in cell growth measured after 72 hrs by CCK8 assay. Format: functional, cell-based. To be noted: HCT-116, 72 h.
For another experiment, the system named is A549. Kind of experiment: Antiproliferative activity against human A549 cells assessed as reduction in cell growth measured after 72 hrs by CCK8 assay. Format: functional, cell-based. To be noted: A549, 72 h.
Experiment [2] deals with MDA-MB-231. Kind of experiment: Induction of cell cycle arrest in human MDA-MB-231 cells assessed as accumulation at G2 phase at 2 uM measured after 24 hrs by flow cytometry analysis (reference value: 23.69%). Type of experiment: functional. On the technique in general: Flow cytometry measures light scatter and fluorescence of single cells or particles in a stream.
The next experiment concerns HUVEC. The experiment can be described thus: Cytotoxicity against HUVEC assessed as inhibition of cell growth measured after 72 hrs by CCK8 assay. To be noted: Homo sapiens. Format: cell-based.
In experiment [3] the test system is MDA-MB-231. The experiment can be described thus: Induction of apoptosis in human MDA-MB-231 cells assessed as increase in apoptotic cells measured after 48 hrs by annexinV-FITC/propidium iodide staining based flow cytometry analysis. Type of experiment: functional, cell-based.
Experiment [4] relates to MDA-MB-231. Kind of experiment: Induction of cell cycle arrest in human MDA-MB-231 cells assessed as accumulation at G2 phase at 1 uM measured after 24 hrs by flow cytometry analysis (reference value: 23.69%). Type of experiment: functional.
Experiment [5] deals with MDA-MB-231. The experiment can be described thus: Induction of cell cycle arrest in human MDA-MB-231 cells assessed as accumulation at S phase at 1 uM measured after 24 hrs by flow cytometry analysis (reference value: 32.63%). Format: functional.
Experiment [6] has as its system MDA-MB-231. The experiment can be described thus: Induction of apoptosis in human MDA-MB-231 cells assessed as apoptotic cells at 10 uM measured after 48 hrs by annexinV-FITC/propidium iodide staining based flow cytometry analysis (reference value: 5.62%). Format: functional.
For experiment [7], the system named is MDA-MB-231. The experiment can be described thus: Induction of apoptosis in human MDA-MB-231 cells assessed as apoptotic cells at 5 uM measured after 48 hrs by annexinV-FITC/propidium iodide staining based flow cytometry analysis (reference value: 5.62%). Type of experiment: functional.
Experiment [8] deals with MDA-MB-231. The experiment can be described thus: Induction of cell cycle arrest in human MDA-MB-231 cells assessed as accumulation at S phase at 2 uM measured after 24 hrs by flow cytometry analysis (reference value: 32.63%). Format: functional.
Experiment [9] relates to MDA-MB-231. The experiment can be described thus: Induction of cell cycle arrest in human MDA-MB-231 cells assessed as accumulation at G1 phase at 2 uM measured after 24 hrs by flow cytometry analysis (reference value: 43.68%). Format: functional.
In experiment [10] the test system is MDA-MB-231. Kind of experiment: Induction of apoptosis in human MDA-MB-231 cells assessed as apoptotic cells at 2.5 uM measured after 48 hrs by annexinV-FITC/propidium iodide staining based flow cytometry analysis (reference value: 5.62%). Format: functional.
Experiment [11] relates to MDA-MB-231. Kind of experiment: Induction of cell cycle arrest in human MDA-MB-231 cells assessed as accumulation at G1 phase at 1 uM measured after 24 hrs by flow cytometry analysis (reference value: 43.68%). Type of experiment: functional.

By IC50 is commonly meant the concentration that inhibits the measured activity by half.

`CC1=NN(c2cccc(Cl)c2)C(=O)C12C=CC(=O)C=C2c1cccc(C)c1` (stereo unspecified): the results for the concentration for half-maximal inhibition (IC50) in the experiment on MDA-MB-231 [1], in the experiment with HCT-116 and in the experiment with A549 were 22.3 µM, 3.74 µM and 20.1 µM, respectively.

`CC1=NN(c2ccc(C)cc2)C(=O)C12C=CC(=O)C=C2c1ccccc1` (stereo unspecified): the IC50 came to 46.6 µM in the experiment with MDA-MB-231 [1], 16.5 µM in the experiment on HCT-116 and 46.3 µM in the experiment with A549.

As for `CC1=NN(c2ccc(Cl)cc2)C(=O)C12C=CC(=O)C=C2c1ccccc1` (stereo unspecified), the IC50 with MDA-MB-231 [1], in the experiment on HCT-116 and in the experiment with A549 was more than 100 µM each time.

As to `CC1=NN(c2ccc(C)cc2)C(=O)C12C=CC(=O)C=C2c1cccc(C)c1` (stereo unspecified), the results for the IC50 with MDA-MB-231 [1], in the experiment on HCT-116 and with A549 were 19.4 µM, 8.34 µM and 22.5 µM, respectively.

For the compound `CC1=NN(c2ccccc2)C(=O)C12C=CC(=O)C=C2c1ccccc1` (stereo unspecified), the IC50 is 27.4 µM with MDA-MB-231 [1], 17.8 µM with HCT-116 and 16.5 µM in the experiment on A549.

With `CC1=NN(c2ccc(Br)cc2)C(=O)C12C=CC(=O)C=C2c1ccccc1` (stereo unspecified), the 50% inhibitory concentration (IC50) in the experiment on MDA-MB-231 [1], in the experiment on HCT-116 and in the experiment on A549 was more than 100 µM in each case.

`CC1=NN(c2ccc(Cl)cc2)C(=O)C12C=CC(=O)C=C2c1cccc(C)c1` (stereo unspecified): the IC50 worked out at 26.9 µM in the experiment with MDA-MB-231 [1], 13.3 µM in the experiment with HCT-116 and 38.4 µM in the experiment on A549.

In the case of `CC1=NN(c2ccccc2)C(=O)C12C=CC(=O)C=C2c1ccc(C)cc1` (stereo unspecified), the figures for the IC50 in the experiment on MDA-MB-231 [1], in the experiment with HCT-116 and in the experiment on A549 were 91.9 µM, 27.1 µM and 19.3 µM, respectively.

As for `CC1=NN(c2ccc(Br)cc2)C(=O)C12C=CC(=O)C=C2c1cccc(C)c1` (stereo unspecified), the IC50 is 2.89 µM in the experiment with MDA-MB-231 [1], more than 100 µM in the experiment on HCT-116 and 45.4 µM in the experiment with A549.

Take `CC1=NN(c2cccc(Cl)c2)C(=O)C12C=CC(=O)C=C2c1ccc(C)cc1` (stereo unspecified): the Activity in the experiment with MDA-MB-231 [2] was 17.5%; in the experiment on MDA-MB-231 [3], “Dose-dependent effect”; in the experiment with MDA-MB-231 [4] it was 21.23%; in the experiment on MDA-MB-231 [5] it was 29.18%; in the experiment with MDA-MB-231 [6], 47.23%; with MDA-MB-231 [7], 12.2%. For the same compound, the Activity with MDA-MB-231 [8] was 14.27%; in the experiment with MDA-MB-231 [9], 68.23%; in the experiment on MDA-MB-231 [10] it was 9.7%; with MDA-MB-231 [11], 45.59 - 49.59%. In addition, the IC50 in the experiment with HUVEC was 5.41 µM; in the experiment with MDA-MB-231 [1] it was 3.82 µM; with HCT-116 it was 2.4 to 2.89 µM; with A549 it was 9.05 µM.

As to `CC1=NN(c2ccc(Br)cc2)C(=O)C12C=CC(=O)C=C2c1ccc(C)cc1` (stereo unspecified), the 50% inhibitory concentration (IC50) stood at 15.9 µM with MDA-MB-231 [1], 10.6 µM in the experiment with HCT-116 and 27.4 µM in the experiment on A549.

Turning to `CC1=NN(c2ccc(C)cc2)C(=O)C12C=CC(=O)C=C2c1ccc(C)cc1` (stereo unspecified), the IC50 with MDA-MB-231 [1] is 5.11 µM; in the experiment with HCT-116, 9.71 µM; with A549, 37 µM.

With `CC1=NN(c2cccc(Cl)c2)C(=O)C12C=CC(=O)C=C2c1ccccc1` (stereo unspecified), the IC50 in the experiment with MDA-MB-231 [1] worked out at 30.1 µM; in the experiment with HCT-116, 7 µM; with A549, 18.8 µM.

As for `CC1=NN(c2ccc(Cl)cc2)C(=O)C12C=CC(=O)C=C2c1ccc(C)cc1` (stereo unspecified), the IC50 in the experiment with MDA-MB-231 [1] was 14.3 µM; with HCT-116, 10.3 µM; in the experiment on A549, 33.4 µM.

Consider `CC1=NN(c2ccccc2)C(=O)C12C=CC(=O)C=C2c1cccc(C)c1` (stereo unspecified), for which the half-maximal inhibitory concentration (IC50) was 85.8 µM in the experiment with MDA-MB-231 [1], more than 100 µM in the experiment on HCT-116 and 16.5 µM with A549.

(Values after ChEMBL document CHEMBL4342438, “Discovery of pyrazolone spirocyclohexadienone derivatives with potent antitumor activity” (Bioorg Med Chem Lett, 2020).)
